The target of assay [1] is EGFR Del19/T790M/C797S (Homo sapiens, UniProt P00533, C797S/DEL746-750/T790M). In words: Biochemical EGFR kinase inhibition assay (Lance Ultra TR-FRET), triple mutant del19/T790M/C797S. A digest of the protocol:
(§1)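 In this biochemical assay, phosphorylation after a one-hour room-temperature reaction was detected with europium-labelled anti-phosphopeptide antibody at 2 nM final concentration.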
A general note: Time-resolved FRET reads energy transfer from a long-lived donor to a nearby acceptor.

Assay [2] has as its target EGFR L858R/T790M/C797S (Homo sapiens, UniProt P00533, C797S/L858R/T790M). The experiment in a line: Biochemical EGFR kinase inhibition assay (Lance Ultra TR-FRET), triple mutant L858R/T790M/C797S. In outline:
as §1

Assay [3] has as its target EGFR Del19/C797S (Homo sapiens, UniProt P00533, C797S/DEL746-750). The experiment in a line: Biochemical EGFR kinase inhibition assay (Lance Ultra TR-FRET), double mutant del19/C797S. A digest of the protocol:
as §1

Assay [4] deals with EGFR L858R/C797S (Homo sapiens, UniProt P00533, C797S/L858R). The experiment in a line: Biochemical EGFR kinase inhibition assay (Lance Ultra TR-FRET), double mutant L858R/C797S. In outline: as §1
Assay [5] addresses EGFR wildtype (WT) (Homo sapiens, UniProt P00533). The experiment in a line: Biochemical EGFR kinase inhibition assay (Lance Ultra TR-FRET), wildtype. A digest of the protocol:
as §1

The mark [6] stands for this setting: IC50 Del19/T790M/C797S (nM), 100 μM ATP.
The mark [7] stands for this setting: Km ATP, read-out: IC50 Del19/T790M/C797S (nM), Km ATP.
[8] abbreviates: IC50 L858R/T790M/C797S (nM), 100 μM ATP.
The mark [9] stands for this setting: Km ATP, read-out: IC50 L858R/T790M/C797S (nM), Km ATP.
Where [10] appears, read: IC50 Del19/C797S (nM), 100 μM ATP.
Where [11] appears, read: Km ATP, read-out: IC50 Del19/C797S (nM), Km ATP.
The mark [12] stands for this setting: IC50 L858R/C797S (nM), 100 μM ATP.
[13] abbreviates: Km ATP, read-out: IC50 L858R/C797S (nM), Km ATP.
Setting [14] is: Km ATP, read-out: IC50 WT (nM), Km ATP.
Setting [15] is: Km ATP, read-out: IC50 Del19/T790M/C797S (nM) Km ATP.
Setting [16] is: Km ATP, read-out: IC50 Del19/C797S (nM) Km ATP.
Where [17] appears, read: Km ATP, read-out: IC50 L858R/C797S (nM) Km ATP.
Setting [18] is: Km ATP, read-out: IC50 WT (nM) Km ATP.
[19] abbreviates: ATP at Km, read-out: IC50 Del19/T790M/C797S (nM), Km ATP.
The mark [20] stands for this setting: ATP at Km, read-out: IC50 L858R/T790M/C797S (nM), Km ATP.
The mark [21] stands for this setting: ATP at Km, read-out: IC50 Del19/C797S (nM), Km ATP.
The mark [22] stands for this setting: ATP at Km, read-out: IC50 L858R/C797S (nM), Km ATP.
The mark [23] stands for this setting: ATP at Km, read-out: IC50 WT (nM), Km ATP.

Read-outs that look alike come from different tables or passages of the source.

Chain of EGFR Del19/C797S (P00533 with tags, fused parts or gaps DEL746-750/C797S): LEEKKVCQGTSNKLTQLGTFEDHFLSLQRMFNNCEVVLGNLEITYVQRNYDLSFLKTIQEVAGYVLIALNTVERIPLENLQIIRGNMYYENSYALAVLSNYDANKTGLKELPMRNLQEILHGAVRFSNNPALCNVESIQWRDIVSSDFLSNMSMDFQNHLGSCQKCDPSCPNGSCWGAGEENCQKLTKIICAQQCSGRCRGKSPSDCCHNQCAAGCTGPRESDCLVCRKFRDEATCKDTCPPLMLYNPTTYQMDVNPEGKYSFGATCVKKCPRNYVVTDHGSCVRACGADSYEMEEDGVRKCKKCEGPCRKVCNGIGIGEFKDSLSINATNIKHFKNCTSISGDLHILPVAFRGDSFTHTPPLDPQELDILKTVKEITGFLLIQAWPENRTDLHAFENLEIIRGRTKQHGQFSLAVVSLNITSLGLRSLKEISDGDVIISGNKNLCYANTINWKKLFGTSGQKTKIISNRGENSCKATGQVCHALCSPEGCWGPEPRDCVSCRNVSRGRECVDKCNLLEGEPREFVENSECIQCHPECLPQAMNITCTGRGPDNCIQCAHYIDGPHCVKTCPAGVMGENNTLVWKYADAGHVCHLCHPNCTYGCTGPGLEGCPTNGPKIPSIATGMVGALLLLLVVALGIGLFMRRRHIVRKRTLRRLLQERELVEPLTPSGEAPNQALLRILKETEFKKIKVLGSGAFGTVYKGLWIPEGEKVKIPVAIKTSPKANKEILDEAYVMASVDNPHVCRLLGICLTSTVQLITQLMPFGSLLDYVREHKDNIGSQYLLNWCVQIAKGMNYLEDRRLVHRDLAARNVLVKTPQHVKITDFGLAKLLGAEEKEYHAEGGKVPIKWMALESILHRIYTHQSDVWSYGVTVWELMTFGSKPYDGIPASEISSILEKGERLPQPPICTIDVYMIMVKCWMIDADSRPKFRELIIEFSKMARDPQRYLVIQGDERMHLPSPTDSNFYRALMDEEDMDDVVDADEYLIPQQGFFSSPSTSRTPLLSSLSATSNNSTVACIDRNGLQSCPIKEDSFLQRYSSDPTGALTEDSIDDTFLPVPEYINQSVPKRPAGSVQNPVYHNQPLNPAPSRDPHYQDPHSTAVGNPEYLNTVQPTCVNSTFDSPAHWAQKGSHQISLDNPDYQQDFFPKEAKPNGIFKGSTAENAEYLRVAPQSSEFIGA
Chain of EGFR Del19/T790M/C797S (P00533 with tags, fused parts or gaps DEL746-750/T790M/C797S): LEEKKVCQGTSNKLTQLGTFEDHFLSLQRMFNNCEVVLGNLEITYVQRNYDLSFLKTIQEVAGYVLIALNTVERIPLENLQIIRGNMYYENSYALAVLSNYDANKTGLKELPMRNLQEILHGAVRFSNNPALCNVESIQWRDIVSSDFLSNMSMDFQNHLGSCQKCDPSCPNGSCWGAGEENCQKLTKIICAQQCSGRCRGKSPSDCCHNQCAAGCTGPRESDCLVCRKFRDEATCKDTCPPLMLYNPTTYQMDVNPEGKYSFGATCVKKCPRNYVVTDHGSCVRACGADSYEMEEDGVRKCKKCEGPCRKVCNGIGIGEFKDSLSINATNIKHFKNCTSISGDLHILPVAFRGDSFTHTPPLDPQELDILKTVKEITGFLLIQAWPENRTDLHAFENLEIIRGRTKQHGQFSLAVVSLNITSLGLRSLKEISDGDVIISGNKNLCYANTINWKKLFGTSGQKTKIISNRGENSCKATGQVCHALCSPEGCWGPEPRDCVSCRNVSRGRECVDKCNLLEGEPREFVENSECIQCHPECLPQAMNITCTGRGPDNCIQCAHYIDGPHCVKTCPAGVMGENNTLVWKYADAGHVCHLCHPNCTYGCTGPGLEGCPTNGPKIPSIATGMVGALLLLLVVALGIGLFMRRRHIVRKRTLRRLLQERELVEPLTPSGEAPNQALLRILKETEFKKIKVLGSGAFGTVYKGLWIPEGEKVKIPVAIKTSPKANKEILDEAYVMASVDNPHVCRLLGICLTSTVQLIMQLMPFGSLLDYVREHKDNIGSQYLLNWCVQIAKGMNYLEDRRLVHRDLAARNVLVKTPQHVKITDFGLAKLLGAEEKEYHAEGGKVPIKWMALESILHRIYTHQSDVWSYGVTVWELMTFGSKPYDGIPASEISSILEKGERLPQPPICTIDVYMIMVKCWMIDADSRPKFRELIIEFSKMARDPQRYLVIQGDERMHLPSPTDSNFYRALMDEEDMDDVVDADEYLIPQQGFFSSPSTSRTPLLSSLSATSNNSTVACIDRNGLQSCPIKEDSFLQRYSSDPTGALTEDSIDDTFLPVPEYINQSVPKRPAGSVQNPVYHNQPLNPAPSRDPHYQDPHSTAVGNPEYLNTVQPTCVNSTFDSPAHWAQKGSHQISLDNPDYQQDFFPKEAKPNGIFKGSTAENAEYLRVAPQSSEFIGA
Chain of EGFR wildtype (WT) (P00533 25-1210): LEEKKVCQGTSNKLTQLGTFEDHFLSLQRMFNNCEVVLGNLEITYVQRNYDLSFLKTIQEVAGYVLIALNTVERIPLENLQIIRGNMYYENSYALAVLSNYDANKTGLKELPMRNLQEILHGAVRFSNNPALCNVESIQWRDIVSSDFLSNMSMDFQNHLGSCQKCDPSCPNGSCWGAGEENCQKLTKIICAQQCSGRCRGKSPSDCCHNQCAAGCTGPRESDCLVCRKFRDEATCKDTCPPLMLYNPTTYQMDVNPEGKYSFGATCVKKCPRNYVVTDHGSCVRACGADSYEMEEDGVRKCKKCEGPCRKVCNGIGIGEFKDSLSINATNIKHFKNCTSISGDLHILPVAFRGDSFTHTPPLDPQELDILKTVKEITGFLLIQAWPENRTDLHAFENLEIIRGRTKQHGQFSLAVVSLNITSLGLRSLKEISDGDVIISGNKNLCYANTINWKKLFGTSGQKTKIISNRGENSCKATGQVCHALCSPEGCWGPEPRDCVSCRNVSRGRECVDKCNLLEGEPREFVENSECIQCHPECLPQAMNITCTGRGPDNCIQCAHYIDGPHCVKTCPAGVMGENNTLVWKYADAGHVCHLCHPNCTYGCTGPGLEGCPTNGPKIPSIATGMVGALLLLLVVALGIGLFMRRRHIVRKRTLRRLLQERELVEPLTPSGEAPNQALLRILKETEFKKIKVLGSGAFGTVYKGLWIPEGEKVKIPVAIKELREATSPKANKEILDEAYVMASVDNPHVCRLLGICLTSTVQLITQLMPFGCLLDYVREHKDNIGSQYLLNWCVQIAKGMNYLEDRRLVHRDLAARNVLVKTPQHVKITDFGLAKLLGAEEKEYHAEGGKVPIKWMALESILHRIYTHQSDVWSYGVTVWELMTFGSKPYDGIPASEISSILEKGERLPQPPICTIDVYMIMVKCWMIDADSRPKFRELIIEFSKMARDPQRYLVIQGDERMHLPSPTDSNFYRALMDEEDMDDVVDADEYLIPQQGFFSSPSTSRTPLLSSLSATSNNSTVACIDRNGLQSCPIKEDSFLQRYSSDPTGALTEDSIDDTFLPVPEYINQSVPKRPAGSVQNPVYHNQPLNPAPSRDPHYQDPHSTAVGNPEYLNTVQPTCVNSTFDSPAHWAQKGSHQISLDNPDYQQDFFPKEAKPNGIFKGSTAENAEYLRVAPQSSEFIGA
Chain of EGFR L858R/T790M/C797S (P00533 25-1210 T790M/C797S/L858R): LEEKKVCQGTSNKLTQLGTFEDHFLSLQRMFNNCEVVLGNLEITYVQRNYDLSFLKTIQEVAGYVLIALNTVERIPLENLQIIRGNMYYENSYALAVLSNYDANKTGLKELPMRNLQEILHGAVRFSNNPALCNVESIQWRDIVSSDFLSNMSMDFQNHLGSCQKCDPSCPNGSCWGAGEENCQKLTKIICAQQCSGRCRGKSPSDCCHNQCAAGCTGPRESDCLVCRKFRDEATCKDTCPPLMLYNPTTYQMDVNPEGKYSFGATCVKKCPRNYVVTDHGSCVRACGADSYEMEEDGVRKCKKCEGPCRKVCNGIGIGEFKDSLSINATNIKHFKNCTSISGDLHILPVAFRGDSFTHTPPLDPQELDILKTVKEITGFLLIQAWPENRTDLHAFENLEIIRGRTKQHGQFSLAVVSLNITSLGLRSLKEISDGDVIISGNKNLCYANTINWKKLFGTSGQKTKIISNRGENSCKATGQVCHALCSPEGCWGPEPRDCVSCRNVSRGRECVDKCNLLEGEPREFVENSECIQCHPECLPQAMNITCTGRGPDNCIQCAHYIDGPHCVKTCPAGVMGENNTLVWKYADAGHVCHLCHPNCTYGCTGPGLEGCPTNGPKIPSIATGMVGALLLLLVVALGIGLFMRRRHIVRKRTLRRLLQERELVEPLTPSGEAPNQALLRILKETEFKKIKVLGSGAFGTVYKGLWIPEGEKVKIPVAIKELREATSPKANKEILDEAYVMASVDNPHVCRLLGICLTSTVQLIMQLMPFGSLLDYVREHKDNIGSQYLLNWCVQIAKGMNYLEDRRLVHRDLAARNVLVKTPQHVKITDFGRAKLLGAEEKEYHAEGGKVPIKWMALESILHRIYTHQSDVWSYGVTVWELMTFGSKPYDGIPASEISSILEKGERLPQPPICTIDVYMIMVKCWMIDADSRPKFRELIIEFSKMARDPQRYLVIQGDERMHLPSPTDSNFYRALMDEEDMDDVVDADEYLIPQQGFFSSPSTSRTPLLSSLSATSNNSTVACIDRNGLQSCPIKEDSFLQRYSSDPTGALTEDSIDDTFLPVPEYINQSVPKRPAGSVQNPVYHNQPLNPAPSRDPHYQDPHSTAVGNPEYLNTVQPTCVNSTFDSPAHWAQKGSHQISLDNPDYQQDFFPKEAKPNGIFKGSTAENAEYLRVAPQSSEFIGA

For `O=S(=O)(C1CC1)n1cc(-c2nccc(Nc3cc(N[C@H]4CC[C@@H](NCCF)CC4)c(C#Cc4cnn(CC(F)(F)F)c4)cn3)n2)cn1` [Example 345, N^2-(2-(1-(Cyclopropylsulfonyl)-1H-pyrazol-4-yl)pyrimidin-4-yl)-N^4-((1s,4s)-4-((2-fluoroethyl)amino)cyclohexyl)-5-((1-(2,2,2-trifluoroethyl)-1H-pyrazol-4-yl)ethynyl)pyridine-2,4-diamine], the IC50 came out at 2.7 nM in assay [1] (setting [6]); 1.5 nM in assay [1] (setting [7]); 2.2 nM in assay [2] (setting [8]); 1.3 nM in assay [2] (setting [9]); 27.6 nM in assay [3] (setting [10]); 11 nM in assay [3] (setting [11]). In addition, the IC50 in assay [4] (setting [12]) was 45.3 nM; in assay [4] (setting [13]), 9.3 nM; in assay [5] (IC50 WT (nM), 100 μM ATP), 7830 nM; in assay [5] (setting [14]), 138 nM.

Turning to `Cn1cc(C#Cc2cnc(Nc3ccnc(-c4cnn(S(=O)(=O)C5CC5)c4)n3)cc2N2CCC(O)CC2)cn1` [Example 27, 1-(2-((2-(1-(Cyclopropylsulfonyl)-1H-pyrazol-4-yl)pyrimidin-4-yl)amino)-5-((1-methyl-1H-pyrazol-4-yl)ethynyl)pyridin-4-yl)piperidin-4-ol], the IC50 in assay [1] (setting [6]) worked out at 0.6 nM; in assay [1] (setting [15]), 0.6 nM; in assay [2] (setting [8]), 1.5 nM; in assay [3] (setting [10]) it was 4.1 nM; in assay [3] (setting [16]), 4 nM; in assay [4] (setting [12]) it was 27.8 nM. Also, the IC50 in assay [4] (setting [17]) was 3.6 nM; in assay [5] (IC50 WT (nM), 100 μM ATP), greater than 10000 nM; in assay [5] (setting [18]), 22 nM.

As for `CN(C)CCC1CCCN(c2cc(Nc3ccnc(-c4cnn(S(=O)(=O)C5CC5)c4)n3)ncc2C#Cc2cnn(C)c2)C1` (stereo not drawn) [Example 396, 2-(1-(Cyclopropylsulfonyl)-1H-pyrazol-4-yl)-N-(4-(3-(2-(dimethylamino)ethyl)piperidin-1-yl)-5-((1-methyl-1H-pyrazol-4-yl)ethynyl)pyridin-2-yl)pyrimidin-4-amine], the IC50 is 0.5 nM in assay [1] (setting [6]); 1 nM in assay [1] (setting [7]); 0.7 nM in assay [2] (setting [8]); 0.1 nM in assay [2] (setting [9]); 1 nM in assay [3] (setting [10]); 0.5 nM in assay [3] (setting [11]). In addition, the IC50 in assay [4] (setting [12]) came to 12.2 nM; in assay [4] (setting [13]), 0.6 nM; in assay [5] (IC50 WT (nM), 100 μM ATP), 3390 nM; in assay [5] (setting [14]), 6.5 nM.

Take `Cn1cnc(C#Cc2cnc(Nc3ccnc(-c4cnn(S(=O)(=O)C5CC5)c4)n3)cc2N[C@H]2CC[C@@H](O)CC2)n1` [Example 167, (1s,4s)-4-((2-((2-(1-(Cyclopropylsulfonyl)-1H-pyrazol-4-yl)pyrimidin-4-yl)amino)-5-((1-methyl-1,2,4-triazol-3-yl)ethynyl)pyridin-4-yl)amino)cyclohexan-1-ol]: the IC50 in assay [1] (setting [19]) stood at 3.7 nM; in assay [1] (setting [6]), 3.4 nM; in assay [2] (setting [20]) it was 3.5 nM; in assay [2] (setting [8]), 15.4 nM; in assay [3] (setting [21]), 81.8 nM; in assay [3] (setting [10]), 88.8 nM. Further, the IC50 in assay [4] (setting [22]) was 24 nM; in assay [4] (setting [12]), 532 nM; in assay [5] (setting [23]) it was 279 nM; in assay [5] (IC50 WT (nM), 100 μM ATP), greater than 10000 nM.

As to `C[C@]1(O)CC[C@H](CNc2cc(Nc3ccnc(-c4cnn(S(=O)(=O)C5CC5)c4)n3)ncc2C#Cc2cnn(CCF)c2)CC1` [Example 380, (1 r,4r)-4-(((2-((2-(1-(Cyclopropylsulfonyl)-1H-pyrazol-4-yl)pyrimidin-4-yl)amino)-5-((1-(2-fluoroethyl)-1H-pyrazol-4-yl)ethynyl)pyridin-4-yl)amino)methyl)-1-methylcyclohexan-1-ol], the IC50 in assay [1] (setting [6]) was determined as 1.5 nM; in assay [1] (setting [7]), 2.4 nM; in assay [2] (setting [8]), 5.4 nM; in assay [2] (setting [9]) it was 2.6 nM; in assay [3] (setting [10]), 58.7 nM; in assay [3] (setting [11]), 32.5 nM. Besides, the IC50 in assay [4] (setting [12]) is 1170 nM; in assay [4] (setting [13]), 32.6 nM; in assay [5] (IC50 WT (nM), 100 μM ATP), greater than 10000 nM; in assay [5] (setting [14]), 114 nM.

Regarding `CNCC1(C)CCN(c2cc(Nc3ccnc(-c4cnn(S(=O)(=O)C5CC5)c4)n3)ncc2C#Cc2cnn(C)c2)CC1` [Example 146, 2-(1-(Cyclopropylsulfonyl)-1H-pyrazol-4-yl)-N-(5-((1-methyl-1H-pyrazol-4-yl)ethynyl)-4-(4-methyl-4-((methylamino)methyl)piperidin-1-yl)pyridin-2-yl)pyrimidin-4-amine], the IC50 in assay [1] (setting [6]) came to 0.2 nM; in assay [1] (setting [15]) it was 0.1 nM; in assay [2] (setting [8]), 0.1 nM; in assay [2] (Km ATP, read-out: IC50 L858R/T790M/C797S (nM) Km ATP), 0.04 nM; in assay [3] (setting [10]) it was 0.5 nM; in assay [3] (setting [16]), 0.2 nM. For the same compound, the IC50 stood at 1.5 nM in assay [4] (setting [12]); 0.3 nM in assay [4] (setting [17]); 348 nM in assay [5] (IC50 WT (nM), 100 μM ATP); 0.8 nM in assay [5] (setting [18]).

For the compound `CC1OCCC1C#Cc1cnc(Nc2ccnc(-c3cnn(S(=O)(=O)C4CC4)c3)n2)cc1NCC1CCC(O)CC1` (stereo not drawn) [Example 431, (1 r,4r)-4-(((2-((2-(1-(Cyclopropylsulfonyl)-1H-pyrazol-4-yl)pyrimidin-4-yl)amino)-5-((2-methyltetrahydrofuran-3-yl)ethynyl)pyridin-4-yl)amino)methyl)cyclohexan-1-ol], the IC50 in assay [1] (setting [6]) was found to be 2.7 nM; in assay [1] (setting [7]), 1.2 nM; in assay [2] (setting [8]), 4.7 nM; in assay [2] (setting [9]), 1 nM; in assay [3] (setting [10]) it was 78.1 nM; in assay [4] (setting [12]), 2090 nM. For the same compound, the IC50 in assay [5] (IC50 WT (nM), 100 μM ATP) is greater than 10000 nM.

Consider `Cn1cc(C#Cc2cnc(Nc3ccnc(-c4cnn(S(=O)(=O)C5CC5)c4)n3)cc2N2CCCC(CF)C2)cn1` (stereo not drawn) [Example 72, 2-(1-(Cyclopropylsulfonyl)-1H-pyrazol-4-yl)-N-(4-(3-(fluoromethyl)piperidin-1-yl)-5-((1-methyl-1H-pyrazol-4-yl)ethynyl)pyridin-2-yl)pyrimidin-4-amine], for which the IC50 in assay [1] (setting [6]) was 2.8 nM; in assay [2] (setting [8]), 16.9 nM; in assay [3] (setting [10]), 50.3 nM; in assay [4] (setting [12]) it was 170 nM; in assay [5] (IC50 WT (nM), 100 μM ATP), greater than 10000 nM.

As to `Cn1cc(C#Cc2cnc(Nc3ccnc(-c4cnn(S(=O)(=O)C5CC5)c4)n3)cc2N2CCC(NCCC(F)(F)F)CC2)cn1` [Example 127, 2-(1-(Cyclopropylsulfonyl)-1H-pyrazol-4-yl)-N-(5-((1-methyl-1H-pyrazol-4-yl)ethynyl)-4-(4-((3,3,3-trifluoropropyl)amino)piperidin-1-yl)pyridin-2-yl)pyrimidin-4-amine], the IC50 in assay [1] (setting [6]) was 2.8 nM; in assay [2] (setting [8]) it was 1.8 nM; in assay [3] (setting [10]), 6.9 nM; in assay [4] (setting [12]), 45.7 nM; in assay [5] (IC50 WT (nM), 100 μM ATP) it was greater than 10000 nM.

As to `CC1(CO)CCN(c2cc(Nc3ccnc(-c4cnn(S(=O)(=O)C5CC5)c4)n3)ncc2C#Cc2cnc(C(F)(F)F)s2)CC1` [Example 292, (1-(2-((2-(1-(Cyclopropylsulfonyl)-1H-pyrazol-4-yl)pyrimidin-4-yl)amino)-5-((2-(trifluoromethyl)thiazol-5-yl)ethynyl)pyridin-4-yl)-4-methylpiperidin-4-yl)methanol], the IC50 in assay [1] (setting [19]) was determined as 4.9 nM; in assay [1] (setting [6]), 2.2 nM; in assay [2] (setting [20]) it was 2.4 nM; in assay [2] (setting [8]), 4.2 nM; in assay [3] (setting [21]), 12.2 nM; in assay [3] (setting [10]), 10.4 nM. For the same compound, the IC50 in assay [4] (setting [22]) is 38.7 nM; in assay [4] (setting [12]), 146 nM; in assay [5] (setting [23]), 101 nM; in assay [5] (IC50 WT (nM), 100 μM ATP), greater than 10000 nM.

On to `CC1(CO)CCN(c2cc(Nc3ccnc(-c4cnn(S(=O)(=O)C5CC5)c4)n3)ncc2C#CC2CCCO2)CC1` (stereo not drawn) [Example 378, (1-(2-((2-(1-(Cyclopropylsulfonyl)-1H-pyrazol-4-yl)pyrimidin-4-yl)amino)-5-((tetrahydrofuran-2-yl)ethynyl)pyridin-4-yl)-4-methylpiperidin-4-yl)methanol], for which the IC50 in assay [1] (setting [6]) was 0.3 nM; in assay [1] (setting [7]), 0.1 nM; in assay [2] (setting [8]) it was 0.4 nM; in assay [2] (setting [9]), 0.1 nM; in assay [3] (setting [10]), 1 nM; in assay [3] (setting [11]), 0.5 nM. For the same compound, the IC50 was found to be 34 nM in assay [4] (setting [12]); 1.3 nM in assay [4] (setting [13]); 2900 nM in assay [5] (IC50 WT (nM), 100 μM ATP); 3.9 nM in assay [5] (setting [14]).

The values above are taken from patent US11981658B2, “Substituted aminopyridine compounds as EGFR inhibitors” (YUHAN CORPORATION, priority 2021, dated 2024).
